Measurements as given in patent publication US20250171459A1, “2-METHYL-4',5'-DIHYDROSPIRO[PIPERIDINE-4,7'-THIENO[2,3-C]PYRAN] DERIVATIVES AS INHIBITORS OF APOL1 AND METHODS OF USING SAME” (Vertex Pharmaceuticals Incorporated, priority 2022, published 2025).
pIC50: −log10 of the molar value.

Target: T1, APOL1 (Homo sapiens, UniProt O14791)
T1 sequence (O14791 1-398 S342G/I384M): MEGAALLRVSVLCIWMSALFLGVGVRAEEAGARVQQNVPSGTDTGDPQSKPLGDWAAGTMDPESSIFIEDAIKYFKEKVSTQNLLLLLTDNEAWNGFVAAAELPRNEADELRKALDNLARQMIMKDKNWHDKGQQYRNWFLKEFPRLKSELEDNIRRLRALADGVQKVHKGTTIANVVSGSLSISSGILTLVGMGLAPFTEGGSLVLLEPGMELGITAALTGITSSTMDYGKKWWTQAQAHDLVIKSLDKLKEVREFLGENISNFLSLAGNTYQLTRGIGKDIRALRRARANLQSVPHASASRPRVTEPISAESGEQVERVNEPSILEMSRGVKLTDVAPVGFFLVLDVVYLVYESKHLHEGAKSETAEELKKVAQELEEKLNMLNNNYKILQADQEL
Experiment: MultiTox-Fluor Multiplex Cytotoxicity Assay in tet-inducible APOL1 T-REx-HEK293 cells (cell rescue, ratio of dead to live cells)
Assay type: cell-based
Settings: tet-inducible transgenic APOL1 T-REx-HEK293 cell lines, 50 ng/mL tet, 24 hours; read-out: IP50 (i.e., IC50 for cell proliferation)
Procedure, shortened: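 T-REx-HEK293 cells with tet-inducible APOL1 were treated with compound (10 μM top, 10-point 3-fold dilution, duplicate) plus 50 ng/mL tetracycline for 24 h at 37° C, in DMEM with 2% tet-free FBS. MultiTox-Fluor protease signals gave a dead/live ratio, normalized to no tet (100% viability) and tet alone (0%).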

SMILES | pIC50
C[C@H]1C[C@@]2(CCN1Cc1cnn(CC(O)CC(C)(O)C3CC3)c1)OCCc1c2sc(C(F)(F)F)c1CO (some centres unmarked) [Compound 938] | > 7.00
C[C@H]1C[C@@]2(CCN1Cc1cnn(CC(O)c3ccccn3)c1)OCCc1c2sc(C(F)(F)F)c1CO (some centres unmarked) [Compound 939] | > 7.00
C[C@H]1C[C@@]2(CCN1Cc1cnn(CC(O)C3(O)CCC3)c1)OCCc1c2sc(C(F)(F)F)c1CO (some centres unmarked) [Compound 940] | > 7.00
C[C@H]1C[C@@]2(CCN1Cc1cnn(CC(O)C3(O)CCOC3)c1)OCCc1c2sc(C(F)(F)F)c1CO (some centres unmarked) [Compound 941] | > 7.00
C[C@H]1C[C@@]2(CCN1Cc1cnn(CC(O)CC3(O)CCOC3)c1)OCCc1c2sc(C(F)(F)F)c1CO (some centres unmarked) [Compound 942] | > 7.00
C[C@H]1C[C@@]2(CCN1Cc1cnn(CC3(O)CCOCC3)c1)OCCc1c2sc(C(F)(F)F)c1CO [Compound 943, 4-[[4-[[(2′S, 7R)-3-(hydroxymethyl)-2′-methyl-2-(trifluoromethyl)spiro[4,5-dihydrothieno[2,3-c]pyran-7,4′-piperidine]-1′-yl]methyl]pyrazol-1-yl]methyl]tetrahydropyran-4-ol] | > 7.00
C[C@H]1C[C@@]2(CCN1Cc1cnn(CC(O)C3CCC3)c1)OCCc1c2sc(C(F)(F)F)c1CO (some centres unmarked) [Compound 944] | > 7.00
C[C@H]1C[C@@]2(CCN1Cc1cnn(CC(O)CC3(O)COC3)c1)OCCc1c2sc(C(F)(F)F)c1CO (some centres unmarked) [Compound 945] | > 7.00
C[C@H]1C[C@@]2(CCN1Cc1cnn(CC(O)C3CCCOC3)c1)OCCc1c2sc(C(F)(F)F)c1CO (some centres unmarked) [Compound 946] | > 7.00
C[C@H]1C[C@@]2(CCN1Cc1cnn(CC3(O)CCS(=O)(=O)CC3)c1)OCCc1c2sc(C(F)(F)F)c1CO [Compound 947] | > 7.00
C[C@H]1C[C@@]2(CCN1Cc1cnn(CC3(O)CCC3)c1)OCCc1c2sc(C(F)(F)F)c1CO [Compound 948] | > 7.00
C[C@H]1C[C@@]2(CCN1Cc1cnn(CC(O)CC(C)(C)O)c1)OCCc1c2sc(C(F)(F)F)c1CO (some centres unmarked) [Compound 949] | > 7.00
C[C@H]1C[C@@]2(CCN1Cc1cnn(CC(O)CC3(C#N)CC3)c1)OCCc1c2sc(C(F)(F)F)c1CO (some centres unmarked) [Compound 950] | > 7.00
C[C@H]1C[C@@]2(CCN1Cc1cnn(CC3(O)CCOC3=O)c1)OCCc1c2sc(C(F)(F)F)c1CO (some centres unmarked) [Compound 951] | 6.00 to 6.30
C[C@H]1C[C@@]2(CCN1Cc1cnn(CC3(O)CCCOC3)c1)OCCc1c2sc(C(F)(F)F)c1CO (some centres unmarked) [Compound 952] | > 7.00
C[C@H]1C[C@@]2(CCN1Cc1cnn(CC(C)(O)C(F)F)c1)OCCc1c2sc(C(F)(F)F)c1CO (some centres unmarked) [Compound 953] | > 7.00
C[C@H]1C[C@@]2(CCN1Cc1cnn(CC3(O)CC(C#N)C3)c1)OCCc1c2sc(C(F)(F)F)c1CO (some centres unmarked) [Compound 954] | > 7.00
C[C@H]1C[C@@]2(CCN1Cc1cnn(CC(O)C3(O)CCCC3)c1)OCCc1c2sc(C(F)(F)F)c1CO (some centres unmarked) [Compound 955] | > 7.00
CC(C)OC[C@@H](O)Cn1cc(CN2CC[C@]3(C[C@@H]2C)OCCc2c3sc(C(F)(F)F)c2CO)cn1 [Compound 956] | > 7.00
CCOCCC(O)Cn1cc(CN2CC[C@]3(C[C@@H]2C)OCCc2c3sc(C(F)(F)F)c2CO)cn1 (some centres unmarked) [Compound 957] | > 7.00
COCC(O)Cn1cc(CN2CC[C@]3(C[C@@H]2C)OCCc2c3sc(C(F)(F)F)c2CO)cn1 (some centres unmarked) [Compound 958] | > 7.00
C[C@H]1C[C@@]2(CCN1Cc1cnn(CC(O)C3CCOCC3)c1)OCCc1c2sc(C(F)(F)F)c1CO (some centres unmarked) [Compound 959] | > 7.00
C[C@H]1C[C@@]2(CCN1Cc1cnn(CC(O)C(C)(C)O)c1)OCCc1c2sc(C(F)(F)F)c1CO (some centres unmarked) [Compound 960] | > 7.00
C[C@H]1C[C@@]2(CCN1Cc1cnn(CC(O)CC3(O)CCC3)c1)OCCc1c2sc(C(F)(F)F)c1CO (some centres unmarked) [Compound 961] | > 7.00
C[C@H]1C[C@@]2(CCN1Cc1cnn(CC(O)CC3(O)CCCC3)c1)OCCc1c2sc(C(F)(F)F)c1CO (some centres unmarked) [Compound 962] | > 7.00
C[C@H]1C[C@@]2(CCN1Cc1cnn(CC(O)CC(C)(C)C#N)c1)OCCc1c2sc(C(F)(F)F)c1CO (some centres unmarked) [Compound 963] | > 7.00
